SMILES strings stand for the structures. Like-named read-outs stand apart in the source and are kept apart here.

Data set [1] deals with hESCs. The data set can be described thus: Arginine / ADMA fold change ratio (integrated EICs) in dosed hESCs vs controls. Particulars: for Arg fold change/ADMA fold change: EIC areas, controls vs. dosed. How it is done:
All tested chemicals were purchased from Sigma-Aldrich (St. Louis, Mo.). Cells were dosed with drugs at a concentration equivalent to their published serum circulating therapeutic dosages. Dosing was performed on hESCs in 6-well plates in triplicate, i.e. three wells per plate. The plates were dosed in triplicate, so there were a total of nine dosed wells. In parallel, there were nine “control” wells, in which hESCs were cultured with mTeSR1 containing no drug, and three wells containing Matrigel with mTeSR1 medium without hESCs that served as medium controls. Lastly, three wells of dosed medium controls were prepared, containing Matrigel, mTeSR1 and drug, but no hESCs (FIG. 1). These medium controls provided baseline mass spectral data. On the first day of dosage, the determined concentration of drug was dissolved in mTeSR1, and then 2.5 mL of this solution was added to each dosed well of hESCs. Each day, for four days, the medium was removed and new dosed medium was added. On the fourth day, the medium was removed and added to acetonitrile to make a 40% acetonitrile solution, as outlined in the Sample Preparation section below.
Mass spectrometry was performed using an Agilent QTOF LC/MS system consisting of a G6520AA QTOF high resolution mass spectrometer capable of exact mass MS and MS/MS. In order to facilitate separation of small molecules with a wide range of polarity and to allow increased retention of hydrophilic species, Hydrophilic Interaction Liquid Chromatography (Alpert 1990) was employed. Each sample was run for 30 minutes with the gradient shown in Table 3 at a flow rate of 0.5 mL/min, using 0.1% formic acid in water (Solvent A) and 0.1% formic acid in acetonitrile (Solvent B). Electrospray ionization was employed using a dual ESI source, with an Agilent isocratic pump continuously delivering an internal mass reference solution into the source at approx. 0.01 mL/min. The mass range of the instrument was set to 100-1700 Da. A Phenomenex Luna HILIC column with dimensions 3×100 mm 3 μm particle size was used and maintained at 30° C. 5 μl of each sample was injected. Data acquisition was performed with Agilent MassHunter using high-resolution exact mass conditions.
Valproate is known to cause neural tube defects (DiLiberti et al. 1984) while nitric oxide synthase activity is essential for neural tube closure (Nachmany et al. 2006).

The test system of data set [2] is WA09 human embryonic stem (hES) cells. The experiment in a line: PLS-DA prediction of teratogenicity from secretome of treated hES cells (Example 9). Particulars: DevTox pharmaceutical.
Source text: These included 11 known teratogens and 11 known non-teratogens. The current model is based on the mean fold change (treatment versus its associated intra-experimental control) of 15 metabolites common among the secretome of hES cells treated with pharmaceutical agents and unknown chemical compounds.
The mark [3] stands for this setting: high dose (H = 10x circulating dose).
Where [4] appears, read: low dose (L = 0.1x circulating dose).

With `O=C1O[C@H]([C@@H](O)CO)C(O)=C1O` [Ascorbic Acid], in data set [1], the “Arg/ADMA Prediction” value is listed as “Ter”, the “Outcome of the Arg/ADMA metrics for teratogenicity” value is on record as “false positives for teratogenicity” and the “Arg fold change/ADMA fold change” value came out at 1.28. In data set [2] (setting [3]), the “% Non (PLS-DA class probability non-teratogen)” value (shortened to “% Non”) is listed as 0.57, the “% Ter (PLS-DA class probability teratogen)” value (shortened to “% Ter”) is recorded as 0.43, the “Confidence (difference between class probabilities)” value is 0.14 and the Prediction entry is recorded as “Non”. In addition, in data set [2] (setting [4]), the “% Non” value was 0.57, the “% Ter” value is listed as 0.43, the “Confidence (difference between class probabilities)” value is given as 0.14 and the Prediction result is given as “Non”.
For `CC(=O)Oc1ccccc1C(=O)O` [Aspirin], the “Arg fold change/ADMA fold change” value in data set [1] is 1.07.
Consider `Cn1c(=O)c2c(ncn2C)n(C)c1=O` [Caffeine], for which, in data set [2] (setting [3]), the “% Non” value is listed as 0.53, the “% Ter” value was 0.47 and the “Confidence (difference between class probabilities)” value was 0.06. Besides, in data set [2] (setting [4]), the “% Non” value is listed as 0.58, the “% Ter” value is 0.42 and the “Confidence (difference between class probabilities)” value is 0.16.
For `CN(C)CCOC(c1ccccc1)c1ccccc1` [Diphenhydramine], in data set [2] (setting [3]), the “% Non” value is given as 0.73, the “% Ter” value is 0.27, the “Confidence (difference between class probabilities)” value is 0.46 and the Prediction entry is “Non”. For the same compound, in data set [2] (setting [4]), the “% Non” value is given as 0.76, the “% Ter” value is given as 0.24, the “Confidence (difference between class probabilities)” value is listed as 0.52 and the Prediction result is “Non”.
In the case of `Nc1nc2ncc(CNc3ccc(C(=O)N[C@@H](CCC(=O)O)C(=O)O)cc3)nc2c(=O)[nH]1` [Folic Acid], in data set [1], the “Arg fold change/ADMA fold change” value came to 1.08. Further, in data set [2] (setting [3]), the “% Non” value was 0.59, the “% Ter” value was 0.41, the “Confidence (difference between class probabilities)” value is recorded as 0.18 and the Prediction entry is “Non”. Besides, in data set [2] (setting [4]), the “% Non” value was 0.59, the “% Ter” value is 0.41, the “Confidence (difference between class probabilities)” value is 0.18 and the Prediction result is recorded as “Non”.
On to `NNC(=O)c1ccncc1` [Isoniazid], for which, in data set [1], the “Arg fold change/ADMA fold change” value came out at 0.94. In data set [2] (setting [3]), the “% Non” value is 0.59, the “% Ter” value is given as 0.41, the “Confidence (difference between class probabilities)” value is reported as 0.18 and the Prediction result is recorded as “Non”. Also, in data set [2] (setting [4]), the “% Non” value is recorded as 0.76, the “% Ter” value is on record as 0.24, the “Confidence (difference between class probabilities)” value is on record as 0.52 and the Prediction entry is recorded as “Non”.
`N[C@@H](Cc1cc(I)c(Oc2cc(I)c(O)c(I)c2)c(I)c1)C(=O)O` [Levothyroxine]: the “Arg fold change/ADMA fold change” value in data set [1] was 1.03. For the same compound, the “Arg/ADMA Prediction” value in data set [1] (from fold change ratio) was “Non (Smaller fold change ratios (between 0.9 and 1.1) show a good correlation with non-teratogens)”. For the same compound, in data set [2] (setting [3]), the “% Non” value is recorded as 0.59, the “% Ter” value is 0.41, the “Confidence (difference between class probabilities)” value is 0.18 and the Prediction result is “Non”. In data set [2] (setting [4]), the “% Non” value is 0.69, the “% Ter” value was 0.31, the “Confidence (difference between class probabilities)” value is listed as 0.38 and the Prediction result is on record as “Non”.
For the compound `CC1(C)S[C@@H]2[C@H](NC(=O)Cc3ccccc3)C(=O)N2[C@H]1C(=O)O` [Penicillin G], the “Arg fold change/ADMA fold change” value in data set [1] came out at 0.96. In data set [1] (from fold change ratio), the “Arg/ADMA Prediction” value is “Non (Smaller fold change ratios (between 0.9 and 1.1) show a good correlation with non-teratogens)”.
In the case of `CC1(C)S[C@@H]2[C@H](NC(=O)Cc3ccccc3)C(=O)N2[C@H]1C(=O)O` [PenicillinG], in data set [2] (setting [3]), the “% Non” value was 0.57, the “% Ter” value is 0.43, the “Confidence (difference between class probabilities)” value was 0.14 and the Prediction result is recorded as “Non”. Also, in data set [2] (setting [4]), the “% Non” value was 0.55, the “% Ter” value is reported as 0.45, the “Confidence (difference between class probabilities)” value is reported as 0.1 and the Prediction result was “Non”.
With `CC1=C(/C=C/C(C)=C/C=C/C(C)=C/C(=O)O)C(C)(C)CCC1` [Retinoic Acid], in data set [1], the “Arg/ADMA Prediction” value is “Ter” and the “Arg fold change/ADMA fold change” value came out at 0.48.
Take `CC1=C(/C=C/C(C)=C/C=C/C(C)=C/C(=O)O)C(C)(C)CCC1` [RetinoicAcid]: in data set [2] (setting [3]), the “% Non” value is 0.3, the “% Ter” value is 0.7, the “Confidence (difference between class probabilities)” value is reported as 0.4 and the Prediction entry is listed as “Ter”. Further, in data set [2] (setting [4]), the “% Non” value was 0.3, the “% Ter” value is listed as 0.7, the “Confidence (difference between class probabilities)” value is 0.4 and the Prediction result is “Ter”.
Turning to `O=C1NS(=O)(=O)c2ccccc21` [Saccharin], in data set [2] (setting [3]), the “% Non” value is 0.8, the “% Ter” value was 0.2, the “Confidence (difference between class probabilities)” value is reported as 0.6 and the Prediction entry is given as “Non”. Further, in data set [2] (setting [4]), the “% Non” value is on record as 0.75, the “% Ter” value is on record as 0.25, the “Confidence (difference between class probabilities)” value is 0.5 and the Prediction entry is recorded as “Non”.
As to `CCCC(CCC)C(=O)O` [VPA], in data set [2] (setting [3]), the “% Non” value was 0.34, the “% Ter” value is recorded as 0.66, the “Confidence (difference between class probabilities)” value is on record as 0.32 and the Prediction result is given as “Ter”. Moreover, in data set [2] (setting [4]), the “% Non” value was 0.43, the “% Ter” value is listed as 0.57, the “Confidence (difference between class probabilities)” value was 0.14 and the Prediction entry is reported as “Ter”.

Values taken from US8703424B2, “Predicting human developmental toxicity of pharmaceuticals using human stem-like cells and metabolomics” (Stemina Biomarker Discovery, Inc., priority 2010, dated 2014).
